This note sets out measurements from patent publication US5451686A, “3 and 5 alkyl and phenyl 4-(hydroxy or acyloxy)-alkyl substituted 2(5H)-furanones as anti-inflammatory agents” (Allergan, Inc., priority 1994, dated 1995).

Molecules are shown by their SMILES. Where two headings read alike, the source gives them in different places.

The target in assay [1] is bee venom phospholipase A2 (Apis mellifera, UniProt P00630). It is filed as biochemical.
A further assay deals with Calcium^2+ channel. Put plainly: Calcium Channel (mobilization) Inhibition Assay (Fura-2 fluorescence). The class given is cell-based. The source says: Calcium Channel (mobilization) Inhibition Assay
Polymorphonuclear leukocytes (PMNa), gastric glands, GH3 cells, A431 cells, spleen cells, human keratinocytes corneal cells, etc. were loaded with the Ca^2+ sensitive fluorescent dye, Fura-2. The appropriate cell type was chosen and the potency and efficacy of the anti-inflammatory furanones on calcium mobilization, calcium channel inhibition was quantitated. The methods used for A431 cells listed below are representative of those used for other cells.
A431 cells were detached using a 5-10 min trypsin-EDTA treatment whereas GH3 cells were treated 2 to 5 min with a 1% pancreatin solution. Cells were immediately washed twice in a 20 mM HEPES buffer (pH 7.4) containing 120 mM NaCl, 6 mM KCl, 1 mM MgSO4, 1 mg/ml glucose and 1 mg/ml pyruvate and 1.4 mM calcium (medium A). Approximately 5×10^6 cells were suspended in medium A and incubated with 4 uM fura-2-AM for 15 min at 37° C.
After washing the fura-2 loaded cells, the uptake of dye was checked using fluorescence microscopy and found to be evenly distributed in the cytosol of all cells. Fluorescence was continuously recorded with a Perkin-Elmer LS-5 spectrofluorometer. The excitation wavelength was set at 340 nm and emission wavelength set at 500 nm. The cell suspension was continually stirred, maintained at 37° C. and equilibrated for approximately 5 min before addition of various agents. [Ca^2+ i was calculated using the following formula: [formula]
All fluorescence values were measured relative to a EGTA-quenched signal determined as follows: F was the relative fluorescence measurement of the sample. Fmax was determined by lysing the cells with digitonin (100 ug/ml) in DMSO. After Fmax was determined the pH was adjusted to 8, with NaOH and Ca^2+ chelated with 3 mM EGTA to totally quench the fura-2 signal and obtain Fmin.
When quin-2- was used, cells were incubated with 10 uM quin-2- at 37° C. for 1 hour, washed and then used.

The mark [2] stands for this setting: read-out: IC50, Calcium^2+ Channel Mobilization Inhibition, KCl induced.
Where [3] appears, read: read-out: IC50, Calcium^2+ Channel Mobilization Inhibition, TRH induced.

bee venom phospholipase A2, sequence (P00630 34-167 limits assumed): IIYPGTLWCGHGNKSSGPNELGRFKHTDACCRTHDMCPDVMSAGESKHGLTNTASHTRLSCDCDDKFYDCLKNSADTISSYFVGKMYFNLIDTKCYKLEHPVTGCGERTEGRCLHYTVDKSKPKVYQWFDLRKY

`CCCCCCCCCCCCC(O)C1=CC(=O)OC1C` (single isomer, unassigned) [Compound 3, 4-(1-Hydroxytridecyl)-5-methyl-2(5H)-furanone]: the “IC50, Phospholipase A2 Assay” value in assay [1] was “inactive at 3 μM”. Also, the figures for the IC50 in the assay with Calcium^2+ channel (setting [2]) and in the assay on Calcium^2+ channel (setting [3]) were 0.47 µM and 0.67 µM, respectively.
The matching figures for `CCCCCCCCCCCCC(OC(C)=O)C1=CC(=O)OC1C` (centres unmarked) [Compound 1, 4-(1-Acetoxytridecyl)-5-methyl-2(5H)-furanone]: “inactive at 3 μM”, 0.36 µM and 6.4 µM.
Consider `CCCCCCCCCCCCC(OC(C)=O)C1=C(C)C(=O)OC1` (centres unmarked) [Compound 2, 4-(1-Acetoxytridecyl)-3-methyl-2-furanone], for which the “IC50, Phospholipase A2 Assay” value in assay [1] is “inactive at 3 μM”. In addition, the results for the concentration for half-maximal inhibition (IC50) with Calcium^2+ channel (setting [2]) and in the assay on Calcium^2+ channel (setting [3]) were 0.25 µM and 1 µM, respectively.
For `CC1=C(CC/C(C)=C/CCC2=CCC(C3=CC(=O)OC3O)OC2O)C(C)(C)CCC1` (centres unmarked) [manoalide, reference compound], the 50% inhibitory concentration (IC50) in the assay with Calcium^2+ channel (setting [2]) is 0.8 µM; in the assay on Calcium^2+ channel (setting [3]), 0.6 µM.
Turning to `CCCCCCCCCCCC(=O)OCC1=C(c2ccccc2)C(=O)OC1C` (centres unmarked) [Compound 4, 4-Dodecoyloxymethyl-5-methyl-3-phenyl-2(5H)-furanone], the “IC50, Phospholipase A2 Assay” value in assay [1] was “inactive at 3 μM”. Further, the “IC50, Calcium^2+ Channel Mobilization Inhibition, TRH induced” value in the assay with Calcium^2+ channel (TRH induced) is “inactive”. Further, the IC50 with Calcium^2+ channel (setting [2]) came out at 8 µM.
